The nature of this series: solvent given as SMILES.

Consider `Cc1cc2c(o1)=CC1=C(C(F)(F)F)c3cc4oc(C)cc4n3[B-](F)(F)[N+]=21`, for which the absorption maximum (in ClC(Cl)Cl) came out at 613 nm.

For the compound `COc1cc2c(cc1C=C(C#N)C#N)c1ccccc1n2C`, the absorption maximum reads like this: (in C1CCOC1) 423 nm; (in CC#N) 422 nm; (in CCOC(C)=O) 420 nm; (in CN(C)C=O) 428 nm; (in CO) 425 nm; (in CS(C)=O) 427 nm. In addition, the absorption maximum is 425 nm (in Cc1ccccc1), 430 nm (in ClC(Cl)Cl) and 427 nm (in ClCCl).

As to `CCN(CC)c1ccc2cc(-c3ccc(-c4ccc(-c5cc6ccc(N(CC)CC)cc6oc5=O)cc4)cc3)c(=O)oc2c1`, for the setting “in ClCCl”, the absorption maximum is 417 nm.

`C[Si]1(c2ccccc2)C(c2ccc3c(c2)c2ccccc2n3-c2ccccc2)=C(c2ccccc2)C(c2ccccc2)=C1c1ccc2c(c1)c1ccccc1n2-c1ccccc1`: where the note is “in C1CCOC1”, the absorption maximum is listed as 404 nm.

For the setting “in ClCCl”, `Cc1cc2ccccc2c2c1c1ccccc1n2-c1ncccn1` registered an absorption maximum of 303 nm.

`O=c1cc[nH]c(=O)[nH]1` had an absorption maximum (in CC#N) of 256 nm.

As for `FC(F)(F)c1ccc(C#Cc2ncc(-c3ccccc3)o2)cc1`, where the note is “in ClCCl”, the absorption maximum is given as 320 nm.

Compound `O=c1oc2cccc3c4cccc5ccc6c7ccccc7c1c(c23)c6c54` gave an absorption maximum (in C1CCOC1) of 409 nm.

As for `COc1ccc(N(c2ccc(OC)cc2)c2ccc3ccc4c(B(c5c(C)cc(C)cc5C)c5c(C)cc(C)cc5C)ccc5ccc2c3c54)cc1`, the absorption maximum reads like this: (in C1CCOC1) 465 nm; (in CC(C)=O) 459 nm; (in CCCCCC) 463 nm; (in Cc1ccccc1) 469 nm; (in ClC(Cl)Cl) 461 nm; (in ClCCl) 461 nm.

In turn, `COc1ccc(-c2cnc3nn4ccccc4c3c2)cc1` gave an absorption maximum (in C1CCOC1) of 386 nm.

In turn, `COc1ccc(-c2nc(-c3cccc(C#N)c3)[nH]c2-c2ccc(OC)cc2)cc1` displayed an absorption maximum (in CO) of 327 nm.

Take `c1ccc2c(c1)ccc1c3ccccc3ccc21`: the absorption maximum (in ClCCl) was 322 nm.

With `O=C1C=C(Nc2ccc(F)cc2F)C(=O)c2ccccc21`, the absorption maximum was 439 nm (in CCCCCC) and 443 nm (in CO).

As for `O=Cc1cc(O)ccc1O`, the absorption maximum (in C1CCOC1) was 366 nm; the absorption maximum (in C1COCCO1) is 363 nm; the absorption maximum (in CC#N) was found to be 362 nm; the absorption maximum (in CC(C)=O) was found to be 364 nm; the absorption maximum (in CCCO) turned out to be 367 nm; the absorption maximum (in CCO) came to 367 nm. Further, the absorption maximum runs as follows: (in CN(C)C=O) 365 nm; (in CN(C)P(=O)(N(C)C)N(C)C) 369 nm; (in CNC=O) 358 nm; (in CO) 364 nm; (in CS(C)=O) 366 nm; (in ClC(Cl)Cl) 362 nm. The absorption maximum (in NC=O) was found to be 363 nm.

As for `CN(C)c1ccc(C(=O)Nc2ccc([N+](=O)[O-])cc2)cc1`, the absorption maximum (in C1CCCCC1) is 337 nm, the absorption maximum (in C1CCOC1) came to 353 nm, the absorption maximum (in CC#N) amounted to 354 nm and the absorption maximum (in CCOCC) is listed as 345 nm.

In the case of `CC1=[N+]2C(=C(c3ccc(C(=O)c4ccccc4)cc3)c3ccc(C)n3[B-]2(F)F)C=C1c1cc2n(c1)[B-](F)(F)[N+]1=CC=CC1=C2c1c(C)cc(C)cc1C`, the absorption maximum reads like this: (in C1CCCCC1) 599 nm; (in CCOC(C)=O) 601.5 nm.

In turn, `COCCOCCOCCOCC(COCCOCCOCCOC)Oc1cc(/C=C/c2ccc(/C=C(\C#N)C(=O)c3ccccc3)cc2)c(OC(COCCOCCOCCOC)COCCOCCOCCOC)cc1/C=C/c1ccc(/C=C(\C#N)C(=O)c2ccccc2)cc1` displayed an absorption maximum (in ClCCl) of 461 nm.

`c1cc2ccc3ccc(-n4c5ccccc5c5ccccc54)c4ccc(c1)c2c34`: the absorption maximum stood at 344 nm (in CCCCCC), 344 nm (in CCO), 344 nm (in CCOC(C)=O) and 347 nm (in ClCCl).

`Cc1nnc(-c2cc(-c3nnc(C)o3)c(-n3c4ccccc4c4ccccc43)cc2-n2c3ccccc3c3ccccc32)o1`: the absorption maximum (in Cc1ccccc1) turned out to be 359 nm.

The compound `CCCCN1C(=O)c2c(Br)c(Br)c3c4c(Br)c(Br)c5c6c(c(Br)c(Br)c(c7c(Br)c(Br)c(c2c37)C1=O)c64)C(=O)N(CCCC)C5=O` registered an absorption maximum (in ClC(Cl)Cl) of 538 nm.

Under “in CC#N”, `CN1/C(=C\C=C\C2=C3C=CC(c4ccccc4)=[N+]3[B-](F)(F)n3c2ccc3-c2ccccc2)C(C)(C)c2ccccc21` showed an absorption maximum of 671 nm.

Compound `N#Cc1cc(C#N)c(-c2ccc(N(c3ccccc3)c3ccccc3)cc2)cc1-c1ccc(N(c2ccccc2)c2ccccc2)cc1` displayed an absorption maximum (in Cc1ccccc1) of 394 nm.

As to `CCN(CC)c1ccc2cc(-c3nc4cc(C(=O)Nc5ccc(C)cc5[N+](=O)[O-])ccc4o3)c(=O)oc2c1`, the absorption maximum (in ClCCl) is 445 nm.

`O=C(O)CCCc1ccc2ccc3cccc4ccc1c2c34` gave an absorption maximum (in CO) of 375 nm.

Consider `CC(C)(C)C1Nc2ccccc2C(=O)N1Cc1ccccc1` (stereo not given), for which the absorption maximum (in CC#N) is recorded as 344 nm; the absorption maximum (in CCCCCCCCCCCCCCCC) was 333 nm; the absorption maximum (in CO) was 353 nm; the absorption maximum (in ClC(Cl)Cl) was found to be 341 nm; the absorption maximum (in c1ccccc1) stood at 339 nm.

Take `O=c1cc(C(F)(F)F)c2cc3c4c(c2o1)CCCN4CCC3`: the absorption maximum (in C1CCCCC1) turned out to be 393 nm; the absorption maximum (in CC#N) is recorded as 418 nm; the absorption maximum (in CCO) worked out at 421 nm; the absorption maximum (in CCOC(C)=O) is listed as 409 nm; the absorption maximum (in OCC(O)CO) is 434 nm.

`CC1=C(c2cccs2)C(C)=[N+]2C1=C(c1ccc(OS(=O)(=O)c3ccc([N+](=O)[O-])cc3[N+](=O)[O-])cc1)c1c(C)c(-c3cccs3)c(C)n1[B-]2(F)F` returned an absorption maximum (in CO) of 526 nm, an absorption maximum (in Cc1ccccc1) of 535 nm and an absorption maximum (in ClCCl) of 533 nm.

Compound `Cc1ccc2[nH]c(-c3ccc(-c4ccc(-c5ccc(-c6nc7cc(C)ccc7[nH]6)cc5)cc4)cc3)nc2c1` yielded an absorption maximum (in CN(C)C=O) of 351 nm.

With `O=[N+]([O-])c1ccc([N+]2=Cc3ccc4c5c(ccc4c3O[B-]2(c2ccccc2)c2ccccc2)C=[N+](c2ccc([N+](=O)[O-])cc2)[B-](c2ccccc2)(c2ccccc2)O5)cc1`, the absorption maximum was 536 nm (in Cc1ccccc1) and 541 nm (in ClCCl).

`COc1ccc(C2=c3sc(-c4ccc(OC)cc4)cc3=[N+]3C2=Nc2c(-c4ccc(OC)cc4)c4sc(-c5ccc(OC)cc5)cc4n2[B-]3(F)F)cc1` had an absorption maximum (in ClC(Cl)Cl) of 788 nm.

On to `O=C1CCCC2=C1C(c1cccc(Cl)c1)c1c(c3ccccc3oc1=O)N2` (stereo not given), for which the absorption maximum (in CS(C)=O) is listed as 373 nm.

As for `CCC1=C(C)C2=C(c3cc(C(=O)Cl)cc(C4=C5C(C)=C(CC)C(C)=[N+]5[B-](F)(F)n5c(C)c(CC)c(C)c54)c3)c3c(C)c(CC)c(C)n3[B-](F)(F)[N+]2=C1C`, the absorption maximum is 530 nm (in C1CCOC1); 527 nm (in CC#N); 535 nm (in CN(C)C=O); 534 nm (in Cc1ccccc1); 534 nm (in ClC(Cl)Cl).

The values are drawn from the Deep4Chem optical property database.
